Laboratory results: PubChem BioAssay (NCI)
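Cells were grown in 96-well plates and exposed to each compound for 48 hours at five concentrations; endpoints were interpolated linearly between bracketing concentrations, or set to the highest concentration if not reached. Definition used: TGI = concentration required for complete inhibition of growth.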

How the values were obtained:
Assay in all cases: inhibition of tumour cell growth, NCI panel, 48 h
CAKI-1 renal = tested on: CAKI-1 renal
DLD-1 colon = tested on: DLD-1 colon
DMS 114 small cell lung = tested on: DMS 114 small cell lung
DMS 273 small cell lung = tested on: DMS 273 small cell lung
HOP-18 NSCLC = tested on: HOP-18 NSCLC
IGROV1 ovarian = tested on: IGROV1 ovarian
KM20L2 colon = tested on: KM20L2 colon
LXFL 529 NSCLC = tested on: LXFL 529 NSCLC
M19-MEL melanoma = tested on: M19-MEL melanoma
OVCAR-8 ovarian = tested on: OVCAR-8 ovarian
SF-295 CNS = tested on: SF-295 CNS
SNB-19 CNS = tested on: SNB-19 CNS
SNB-78 CNS = tested on: SNB-78 CNS
U251 CNS = tested on: U251 CNS
RXF-631 renal = tested on: RXF-631 renal
XF 498 CNS = tested on: XF 498 CNS

SMILES | TGI (CAKI-1 renal) [µM] | TGI (DLD-1 colon) [µM] | TGI (DMS 114 small cell lung) [µM] | TGI (DMS 273 small cell lung) [µM] | TGI (HOP-18 NSCLC) [µM] | TGI (IGROV1 ovarian) [µM] | TGI (KM20L2 colon) [µM] | TGI (LXFL 529 NSCLC) [µM] | TGI (M19-MEL melanoma) [µM] | TGI (OVCAR-8 ovarian) [µM] | TGI (SF-295 CNS) [µM] | TGI (SNB-19 CNS) [µM] | TGI (SNB-78 CNS) [µM] | TGI (U251 CNS) [µM] | TGI (RXF-631 renal) [µM] | TGI (XF 498 CNS) [µM]
CCC1(N=[N+]=[N-])C(=O)Nc2cc(C)ccc2C1=O (centres undefined) | > 100 | > 100 | > 100 | > 100 | > 100 | > 100 | > 100 | > 100 | > 100 | > 100 | > 100 | > 100 | > 100 | > 100 | – | –
N#CC12C3C4CC5C6C4C1C6C(O)(C53)N2Cc1ccccc1 (centres undefined) | > 100 | > 100 | > 100 | > 100 | > 100 | > 100 | > 100 | > 100 | – | > 100 | > 100 | > 100 | – | > 100 | > 100 | > 100
COC(=O)c1c(C(=O)OC)c2cc(C(=O)c3ccccc3)ccn2c1Cl | – | – | 89.1 | 90.4 | – | > 100 | > 100 | > 100 | > 100 | > 100 | 85.2 | > 100 | > 100 | > 100 | – | 66.6
CCCCc1c2c(nc3c1CCC/C3=C\c1ccccc1)C(=O)C(CN(C)C)CC2 (centres undefined) | – | 33.4 | 34.8 | 41.1 | 38.5 | 36.9 | 35.6 | 21 | 32 | 46.1 | 33.3 | 32.6 | 45.6 | 32.5 | – | 28.2
CC(C)(C)[C@H]1CO[C@]2(C)[C@@H]3C[C@@H]3C(=O)N12 | > 100 | > 100 | > 100 | > 100 | – | > 100 | > 100 | – | > 100 | > 100 | > 100 | > 100 | > 100 | > 100 | > 100 | > 100
O=C(c1ccncc1)n1nc(-c2ccccc2)c(N=Nc2ccc([N+](=O)[O-])cc2)c1-c1ccccc1 | > 100 | > 100 | > 100 | > 100 | – | > 100 | – | 25.7 | > 100 | > 100 | > 100 | > 100 | 28 | – | – | > 100
COc1ccc2c3ccc4c(c3n(C)c2c1)C(=O)c1ccccc1C4=O | – | > 100 | > 100 | > 100 | > 100 | > 100 | > 100 | > 100 | > 100 | > 100 | > 100 | > 100 | > 100 | > 100 | – | –
Cc1cc2c(s1)C(=O)c1sccc1C2=O | 3.17 | 3.36 | 0.6 | 2.62 | 2.81 | 3.05 | 4.75 | 2.5 | – | 1.56 | 1.15 | 3.04 | – | 2.55 | – | 2.92
Cc1cc2oc(=O)[nH]c(=S)c2c(C)c1C | – | – | > 100 | > 100 | > 100 | > 100 | > 100 | > 100 | > 100 | > 100 | > 100 | > 100 | – | > 100 | – | > 100
C=C[C@@]1(C)CC(=O)[C@]2(O)[C@@]3(C)[C@@H](OC(C)=O)CCC(C)(C)[C@@H]3[C@H](OC(C)=O)[C@H](OC(C)=O)[C@@]2(C)O1 | > 100 | – | – | – | – | > 100 | – | – | – | > 100 | > 100 | > 100 | – | > 100 | – | –
CSc1cc(Cl)c(C)cc1S(=O)(=O)NC(=O)NNc1ccc(F)c(Cl)c1 | > 100 | – | – | – | – | > 100 | – | – | – | > 100 | > 100 | > 100 | – | > 100 | – | –
C/C=C(/C)C(=O)O[C@H]1C(C)=C[C@]23C(=O)[C@@H](C=C(COC(C)=O)[C@@H](O)[C@]12O)[C@H]1[C@@H](C[C@H]3C)[C@@]1(C)OC(=O)/C(C)=C\C | 6.14 | – | – | – | – | 10.2 | – | – | – | 11.3 | 5.01 | 5.92 | – | 7.55 | – | –
Cc1ccccc1N(C)S(=O)(=O)c1ccccc1[N+](=O)[O-] | > 100 | – | – | – | – | > 100 | – | – | – | > 100 | > 100 | > 100 | – | > 100 | – | –
C=C[C@H]1CN2CCc3c([nH]c4c([C@H]5CCCN5C)c(O)ccc34)[C@@H]2C[C@@H]1C[C@H]1c2[nH]c3ccccc3c2CCN1C | 3.17 | – | – | – | – | 3.04 | – | – | – | 2.91 | 3.25 | 3.57 | – | 2.92 | – | –
CC1=C(OC2OC(CO)C(O)C(O)C2O)C(=O)C[C@H]2C1=CC[C@@H]1[C@@]2(C)C(=O)C[C@]2(C)[C@@H]([C@@](C)(O)C(=O)CCC(C)(C)O)[C@H](O)C[C@@]12C (some centres undefined) | > 100 | – | – | – | – | > 100 | – | – | – | > 100 | > 100 | > 100 | – | > 100 | – | –
